Results reported in US12440484B2, “1,3,4-oxadiazole homophthalimide derivative compounds as histone deacetylase 6 inhibitor, and the pharmaceutical composition comprising the same” (Chong Kun Dang Pharmaceutical Corp., priority 2019, dated 2025).

How the values were obtained:
HDAC6 human recombinant = HDAC6 human recombinant (Homo sapiens (Human), UniProt Q9UBN7); experiment: HDAC enzyme activity inhibition (in vitro), HDAC6 assay; format: biochemical; conditions: samples at 0.1, 1, 10, 100 and 1000 nM; 37° C. 60 minutes; fluorescence Ex 390, Em 460
HDAC1 = HDAC1 (Homo sapiens (Human), UniProt Q13547); experiment: HDAC enzyme activity inhibition (in vitro), HDAC1 Fluorimetric Drug Discovery Assay Kit; format: biochemical; conditions: samples at 100, 1000 and 10000 nM; 37° C. 60 minutes; fluorescence Ex 390, Em 460
Chain of HDAC1 (Q13547 whole entry): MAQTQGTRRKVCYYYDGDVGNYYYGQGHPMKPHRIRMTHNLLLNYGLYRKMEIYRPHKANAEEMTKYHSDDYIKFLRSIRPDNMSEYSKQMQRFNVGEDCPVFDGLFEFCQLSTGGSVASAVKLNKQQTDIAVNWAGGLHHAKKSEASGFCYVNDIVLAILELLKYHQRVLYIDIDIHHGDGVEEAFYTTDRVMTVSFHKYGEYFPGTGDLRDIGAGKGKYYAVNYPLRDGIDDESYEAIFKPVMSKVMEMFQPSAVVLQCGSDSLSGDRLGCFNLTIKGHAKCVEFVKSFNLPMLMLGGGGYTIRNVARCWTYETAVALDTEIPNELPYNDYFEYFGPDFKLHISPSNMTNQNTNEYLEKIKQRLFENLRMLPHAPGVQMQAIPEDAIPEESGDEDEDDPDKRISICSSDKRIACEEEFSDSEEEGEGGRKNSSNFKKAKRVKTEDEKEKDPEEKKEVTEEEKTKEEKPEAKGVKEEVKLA

Chain of HDAC6 human recombinant (Q9UBN7 whole entry): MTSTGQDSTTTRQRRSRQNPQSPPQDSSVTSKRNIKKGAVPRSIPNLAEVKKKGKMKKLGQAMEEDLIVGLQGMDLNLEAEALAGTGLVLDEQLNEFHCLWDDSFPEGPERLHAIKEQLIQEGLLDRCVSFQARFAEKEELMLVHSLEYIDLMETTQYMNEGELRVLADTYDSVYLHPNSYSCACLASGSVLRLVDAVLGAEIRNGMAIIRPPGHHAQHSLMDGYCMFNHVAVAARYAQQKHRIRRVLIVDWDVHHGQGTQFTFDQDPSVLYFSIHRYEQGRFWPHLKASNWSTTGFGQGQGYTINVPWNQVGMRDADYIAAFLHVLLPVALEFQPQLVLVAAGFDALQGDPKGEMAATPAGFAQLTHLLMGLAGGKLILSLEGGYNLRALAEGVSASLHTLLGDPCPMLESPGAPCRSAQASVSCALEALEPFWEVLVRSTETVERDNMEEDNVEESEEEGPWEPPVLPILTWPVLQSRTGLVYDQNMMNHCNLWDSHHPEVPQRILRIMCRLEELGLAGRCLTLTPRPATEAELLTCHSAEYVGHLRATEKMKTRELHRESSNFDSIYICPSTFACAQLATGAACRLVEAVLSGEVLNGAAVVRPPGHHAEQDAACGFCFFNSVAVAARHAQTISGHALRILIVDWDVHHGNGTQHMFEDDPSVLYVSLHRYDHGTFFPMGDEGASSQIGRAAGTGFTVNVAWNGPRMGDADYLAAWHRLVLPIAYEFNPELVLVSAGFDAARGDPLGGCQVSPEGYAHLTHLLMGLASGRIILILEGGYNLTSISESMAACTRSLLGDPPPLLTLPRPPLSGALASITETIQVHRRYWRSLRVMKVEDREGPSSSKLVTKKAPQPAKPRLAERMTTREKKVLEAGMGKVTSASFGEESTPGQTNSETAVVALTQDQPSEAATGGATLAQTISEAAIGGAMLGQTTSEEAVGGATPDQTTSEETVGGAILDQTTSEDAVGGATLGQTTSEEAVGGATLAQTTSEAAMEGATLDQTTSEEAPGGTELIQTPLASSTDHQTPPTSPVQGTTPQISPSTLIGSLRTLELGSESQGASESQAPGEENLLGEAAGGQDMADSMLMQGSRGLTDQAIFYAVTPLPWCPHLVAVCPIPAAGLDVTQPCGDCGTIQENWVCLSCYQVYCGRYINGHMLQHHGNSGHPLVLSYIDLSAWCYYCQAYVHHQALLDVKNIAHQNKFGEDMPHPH

| IC50 (HDAC6 human recombinant) | IC50 (HDAC1) | SMILES |
| --- | --- | --- |
| 0.015 µM | > 10 µM | CC1(C)C(=O)N(Cc2ccc(-c3nnc(C(F)F)o3)cn2)C(=O)c2cc(-c3ccncc3)ccc21 [Compound 110, 2-((5-(5-(difluoromethyl)-1,3,4-oxadiazole-2-yl)pyridine-2-yl)methyl)-4,4-dimethyl-7-(pyridine-4-yl)isoquinoline-1,3(2H,4H)-dione] |
| 0.029 µM | > 10 µM | CN(C)[C@H]1CCN(c2ccc3c(c2)C(C)(C)C(=O)N(Cc2ccc(-c4nnc(C(F)F)o4)cn2)C3=O)C1 [Compound 31, (S)-2-((5-(5-(difluoromethyl)-1,3,4-oxadiazole-2-yl)pyridine-2-yl)methyl)-6-(3-(dimethylamino)pyrrolidine-1-yl)-4,4-dimethylisoquinoline-1,3(2H,4H)-dione] |
| 0.081 µM | > 10 µM | CCN1CCN(c2ccc3c(c2)C(CC)(CC)C(=O)N(Cc2ccc(-c4nnc(C(F)F)o4)cn2)C3=O)CC1 [Compound 142, 2-((5-(5-(difluoromethyl)-1,3,4-oxadiazole-2-yl)pyridine-2-yl)methyl)-4,4-diethyl-6-(4-ethylpiperazine-1-yl)isoquinoline-1,3(2H,4H)-dione] |
| 0.165 µM | > 10 µM | COCCn1c(=O)n(Cc2ccc(-c3nnc(C(F)F)o3)cn2)c(=O)c2ccccc21 [Compound 17, 3-((5-(5-(difluoromethyl)-1,3,4-oxadiazole-2-yl)pyridine-2-yl)methyl)-1-(2-methoxyethyl)quinazoline-2,4(1H,3H)-dione] |
| 0.683 µM | > 10 µM | CCC(F)(F)CN1CCN(c2ccc3c(c2)C(C)(C)C(=O)N(Cc2ccc(-c4nnc(C(F)F)o4)cn2)C3=O)CC1 [Compound 139, 6-(4-(2,2-difluorobutyl)piperazine-1-yl)-2-((5-(5-(difluoromethyl)-1,3,4-oxadiazole-2-yl)pyridine-2-yl)methyl)-4,4-dimethylisoquinoline-1,3(2H,4H)-dione] |
| 0.089 µM | > 10 µM | CC1(C)C(=O)N(Cc2ccc(-c3nnc(C(F)F)o3)cn2)C(=O)c2ccc(N3CCN(CC(F)(F)C(F)F)CC3)cc21 [Compound 137, 2-((5-(5-(difluoromethyl)-1,3,4-oxadiazole-2-yl)pyridine-2-yl)methyl)-4,4-dimethyl-6-(4-(2,2,3,3-tetrafluoropropyl)piperazine-1-yl)isoquinoline-1,3(2H,4H)-dione] |
| 0.249 µM | > 10 µM | CN(C)CCCn1c(=O)n(Cc2ccc(-c3nnc(C(F)F)o3)cn2)c(=O)c2ccccc21 [Compound 19, 3-((5-(5-(difluoromethyl)-1,3,4-oxadiazole-2-yl)pyridine-2-yl)methyl)-1-(3-(dimethylamino)propyl)quinazoline-2,4(1H,3H)-dione] |
| 0.042 µM | > 10 µM | CN1CCC(c2ccc3c(c2)C(=O)N(Cc2ccc(-c4nnc(C(F)F)o4)cn2)C(=O)C3(C)C)CC1 [Compound 54, 2-((5-(5-(difluoromethyl)-1,3,4-oxadiazole-2-yl)pyridine-2-yl)methyl)-4,4-dimethyl-7-(1-methylpiperidine-4-yl)isoquinoline-1,3(2H,4H)-dione] |
| 0.027 µM | > 10 µM | CC(=O)N1CCN(c2ccc3c(c2)C(C)(C)C(=O)N(Cc2ccc(-c4nnc(C(F)F)o4)cn2)C3=O)CC1 [Compound 34, 6-(4-acetylpiperazine-1-yl)-2-((5-(5-(difluoromethyl)-1,3,4-oxadiazole-2-yl)pyridine-2-yl)methyl)-4,4-dimethylisoquinoline-1,3(2H,4H)-dione] |
| 0.092 µM | > 10 µM | CC1(C)C(=O)N(Cc2ccc(-c3nnc(C(F)F)o3)cn2)C(=O)c2c(-c3ccco3)cccc21 [Compound 82, 2-((5-(5-(difluoromethyl)-1,3,4-oxadiazole-2-yl)pyridine-2-yl)methyl)-8-(furan-2-yl)-4,4-dimethylisoquinoline-1,3(2H,4H)-dione] |
| 0.368 µM | > 10 µM | COCCn1c(=O)c2ccccc2n(Cc2ccc(-c3nnc(C(F)F)o3)cc2)c1=O [Compound 75, 1-(4-(5-(difluoromethyl)-1,3,4-oxadiazole-2-yl)benzyl)-3-(2-methoxyethyl)quinazoline-2,4(1H,3H)-dione] |
| 0.012 µM | > 10 µM | CC1(C)C(=O)N(Cc2ccc(-c3nnc(C(F)F)o3)cn2)C(=O)c2cc(C3CCN(C(=O)CO)CC3)ccc21 [Compound 134, 2-((5-(5-(difluoromethyl)-1,3,4-oxadiazole-2-yl)pyridine-2-yl)methyl)-7-(1-(2-hydroxyacetyl)piperidine-4-yl)-4,4-dimethylisoquinoline-1,3(2H,4H)-dione] |
| 0.059 µM | > 10 µM | CC1(C)C(=O)N(Cc2ccc(-c3nnc(C(F)F)o3)cn2)C(=O)c2ccc(-c3ccccc3F)cc21 [Compound 103, 2-((5-(5-(difluoromethyl)-1,3,4-oxadiazole-2-yl)pyridine-2-yl)methyl)-6-(2-fluorophenyl)-4,4-dimethylisoquinoline-1,3(2H,4H)-dione] |
| 0.034 µM | > 10 µM | CC(C)CN1CCC(c2ccc3c(c2)C(=O)N(Cc2ccc(-c4nnc(C(F)F)o4)cn2)C(=O)C3(C)C)CC1 [Compound 144, 2-((5-(5-(difluoromethyl)-1,3,4-oxadiazole-2-yl)pyridine-2-yl)methyl)-7-(1-isobutylpiperidine-4-yl)-4,4-dimethylisoquinoline-1,3(2H,4H)-dione] |
| 0.018 µM | > 10 µM | CCN1CCN(c2ccc3c(c2)C(C)(C)C(=O)N(Cc2ccc(-c4nnc(C(F)F)o4)cn2)C3=O)CC1 [Compound 39, 2-((5-(5-(difluoromethyl)-1,3,4-oxadiazole-2-yl)pyridine-2-yl)methyl)-6-(4-ethylpiperazine-1-yl)-4,4-dimethylisoquinoline-1,3(2H,4H)-dione] |
| 1.02 µM | > 10 µM | O=c1c2ccccc2n(CCN2CCCCC2)c(=O)n1Cc1ccc(-c2nnc(C(F)F)o2)cc1 [Compound 11, 3-(4-(5-(difluoromethyl)-1,3,4-oxadiazole-2-yl)benzyl)-1-(2-(piperidine-1-yl)ethyl)quinazoline-2,4(1H,3H)-dione] |
| 0.04 µM | > 10 µM | Cn1c(=O)n(Cc2ccc(-c3nnc(C(F)F)o3)cn2)c(=O)c2cc(Br)ccc21 [Compound 86, 6-bromo-3-((5-(5-(difluoromethyl)-1,3,4-oxadiazole-2-yl)pyridine-2-yl)methyl)-1-methylquinazoline-2,4(1H,3H)-dione] |
| 0.057 µM | > 10 µM | O=C1c2ccccc2C(=O)N1Cc1ccc(-c2nnc(C(F)F)o2)cn1 [Compound 1, 2-((5-(5-(difluoromethyl)-1,3,4-oxadiazole-2-yl)pyridine-2-yl)methyl)isoindoline-1,3-dione] |
| 0.273 µM | > 10 µM | O=c1c2ccccc2n(CCn2cccn2)c(=O)n1Cc1ccc(-c2nnc(C(F)F)o2)cn1 [Compound 21, 1-(2-(1H-pyrazole-1-yl)ethyl)-3-((5-(5-(difluoromethyl)-1,3,4-oxadiazole-2-yl)pyridine-2-yl)methyl)quinazoline-2,4(1H,3H)-dione] |
| 0.038 µM | > 10 µM | CC1(C)C(=O)N(Cc2ccc(-c3nnc(C(F)F)o3)cn2)C(=O)c2cc(Br)ccc21 [Compound 51, 7-bromo-2-((5-(5-(difluoromethyl)-1,3,4-oxadiazole-2-yl)pyridine-2-yl)methyl)-4,4-dimethylisoquinoline-1,3(2H,4H)-dione] |
| 0.03 µM | > 10 µM | CCCN1CCN(c2ccc3c(c2)C(=O)N(Cc2ccc(-c4nnc(C(F)F)o4)cn2)C(=O)C3(C)C)CC1 [Compound 130, 2-((5-(5-(difluoromethyl)-1,3,4-oxadiazole-2-yl)pyridine-2-yl)methyl)-4,4-dimethyl-7-(4-propylpiperazine-1-yl) isoquinoline-1,3(2H,4H)-dione] |
| 0.018 µM | > 10 µM | CN1CCN(c2ccc3c(c2)C(C)(C)C(=O)N(Cc2ccc(-c4nnc(C(F)F)o4)cn2)C3=O)CC1 [Compound 29, 2-((5-(5-(difluoromethyl)-1,3,4-oxadiazole-2-yl)pyridine-2-yl)methyl)-4,4-dimethyl-6-(4-methylpiperazine-1-yl)isoquinoline-1,3(2H,4H)-dione] |
| 0.156 µM | > 10 µM | CCCCCN1CCN(c2ccc3c(c2)C(C)(C)C(=O)N(Cc2ccc(-c4nnc(C(F)F)o4)cn2)C3=O)CC1 [Compound 45, 2-((5-(5-(difluoromethyl)-1,3,4-oxadiazole-2-yl)pyridine-2-yl)methyl)-4,4-dimethyl-6-(4-pentylpiperazine-1-yl)isoquinoline-1,3(2H,4H)-dione] |
| 0.083 µM | > 10 µM | CC1(C)C(=O)N(Cc2ncc(-c3nnc(C(F)F)o3)cn2)C(=O)c2ccccc21 [Compound 12, 2-((5-(5-(difluoromethyl)-1,3,4-oxadiazole-2-yl)pyrimidine-2-yl)methyl)-4,4-dimethylisoquinoline-1,3(2H,4H)-dione] |
| 0.056 µM | > 10 µM | CCN1CCC(c2ccc3c(c2)C(C)(C)C(=O)N(Cc2ncc(-c4nnc(C(F)F)o4)cn2)C3=O)CC1 [Compound 156, 2-((5-(5-(difluoromethyl)-1,3,4-oxadiazole-2-yl)pyrimidine-2-yl)methyl)-6-(1-ethylpiperidine-4-yl)-4,4-dimethylisoquinoline-1,3(2H,4H)-dione] |

| SMILES | IC50 (HDAC6 human recombinant) | IC50 (HDAC1) |
| --- | --- | --- |
| CN(C)CCN(C)c1ccc2c(c1)C(C)(C)C(=O)N(Cc1ccc(-c3nnc(C(F)F)o3)cn1)C2=O [Compound 38, 2-((5-(5-(difluoromethyl)-1,3,4-oxadiazole-2-yl)pyridine-2-yl)methyl)-6-((2-(dimethylamino)ethyl)(methyl)amino)-4,4-dimethylisoquinoline-1,3(2H,4H)-dione] | 0.024 µM | > 10 µM |
| CC1(C)C(=O)N(Cc2ccc(-c3nnc(C(F)F)o3)cn2)C(=O)c2ccc(C3CCN(C4CCC4)CC3)cc21 [Compound 64, 6-(1-cyclobutylpiperidine-4-yl)-2-((5-(5-(difluoromethyl)-1,3,4-oxadiazole-2-yl)pyridine-2-yl)methyl)-4,4-dimethylisoquinoline-1,3(2H,4H)-dione] | 0.025 µM | > 10 µM |
